Data reported in US9328078B2, “Benzofurazan anti-amyloid compounds and methods” (Treventis Corporation, priority 2012, dated 2016).

Target: Aβ40 (Homo sapiens, UniProt P05067)
Assay: kinetic ThT assay for Aβ aggregation
Type: biochemical
Settings: for IC50: ThT fluorescence, 20 μM Aβ, 37° C., up to 80 hr, parenthesis = compound 1027 in same experiment, read-out: IC50 A β 1-40; for inhibition at 10 µM: compound 10 μM, read-out: % inhib Aβ 40 10 μM; for inhibition at 10 µM / inhibition at 5 µM / inhibition at 20 µM: DMSO control at 80 hr = 0% inhibition, parenthesis = compound 1027; for inhibition at 5 µM: 80 h, compound 5 μm, read-out: % inhib Aβ 40 (5 μm); for inhibition at 20 µM: compound 20 μM, read-out: % inhib. A β 40 (20 μM)
Procedure: Aβ40 (1.0 mg) was pre-treated in a 1.5 mL microfuge tube with HFIP (1 mL) and sonicated for 20 min to disassemble any pre-formed Aβ aggregates. The HFIP was removed with a stream of argon and the Aβ dissolved in Tris base (5.8 mL, 20 mM, pH˜10). The pH was adjusted to 7.4 with concentrated HCl (˜10 μL) and the solution filtered using a syringe filter (0.2 μm) before being used.
The kinetic ThT assay for AP aggregation is similar to that of Chalifour et al (Chalifour et al, 2003, J. Biol. Chem. 278:34874-81). Briefly, pre-treated Aβ40 or Aβ42 (40 μM in 20 mM Tris, pH 7.4) was diluted with an equal volume of 8 μM Thioflavin T (ThT) in Tris (20 mM, pH 7.4, 300 mM NaCl). Aliquots of Aβ/ThT (200 μL) were added to wells of a black polystyrene 96-well plate, followed by 2 μL of a compound in DMSO (variable concentration), or DMSO alone (controls). Incubations were performed in triplicate and were taken to contain 20 μM Aβ, various concentration of compound in 20 mM Tris, pH 7.4, 150 mM NaCl, 1% DMSO. Plates were covered with clear polystyrene lids and incubated at 37° C. in a Tecan Genios microplate reader.
Fluorescence readings (λex=450 nm, λem=480 nm) were taken every 15 min., after first shaking at high intensity for 15 s and allowing to settle for 10 s before each reading. Active compounds attenuated the increase in fluorescence over time that occurred in controls. In FIGS. 1-7, the time this procedure was performed extended to 80 hours (rightmost part of X-axis), at which point fluorescence increase generally reached an asymptote. Applying a definition of DMSO control at 80 hr as 100% aggregation (0% inhibition) and DMSO control at 0 hr as 0% aggregation (100% inhibition), a % inhibition score where higher is better can be calculated for a given concentration of compound. By repeating this procedure over several concentrations, a […] (IC50) can be measured, as is given in the table below for some compounds.
Data is summarized in the table below; numbers given in parenthesis are the values in that particular experiment for compound ID 1027, given as the first entry in this table for comparison.

Aβ40, sequence (P05067 672-711 limits assumed, species assumed): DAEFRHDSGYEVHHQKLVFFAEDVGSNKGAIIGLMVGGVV

SMILES	inhibition at 5 µM	inhibition at 20 µM	further results
CC1CCCN1c1cc(-c2cccc(C(O)C(F)(F)F)c2)cc2nonc12 (mixture of isomers) [TRV-1379]			IC50: 1650 nM
CC(O)c1cccc(-c2cc(NCc3ccccc3)c3nonc3c2)c1 (stereo not shown) [TRV-1259]			inhibition at 10 µM: 66.3%
CC(O)c1cccc(-c2cc(N3CCCC3)c3nonc3c2)c1 (stereo not shown) [TRV-1310]			inhibition at 10 µM: 81.5%
CC(O)c1cccc(-c2cc(N(C)Cc3ccccc3)c3nonc3c2)c1 (stereo not shown) [TRV-1358]			inhibition at 10 µM: 72.7%
CC(O)c1cccc(-c2cc(N3CCC[C@H]3CO)c3nonc3c2)c1 (stereo partly shown) [TRV-1359]			inhibition at 10 µM: 75.2%
OC(c1cccc(-c2cc(N3CCOCC3)c3nonc3c2)c1)C(F)(F)F (stereo not shown) [TRV-1360]			inhibition at 10 µM: 58.9%
OC(c1cccc(-c2cc(N3CCCC3)c3nonc3c2)c1)C(F)(F)F (stereo not shown) [TRV-1361]			inhibition at 10 µM: 88.9%
CC(=O)c1cccc(-c2cc(N3CCCC3)c3nonc3c2)c1 [TRV-1362]			inhibition at 10 µM: 41.4%
OC(c1ccc(-c2cc(N3CCCC3)c3nonc3c2)s1)C(F)(F)F (stereo not shown) [TRV-1364]			IC50: 1000 nM
OC(c1ccc(-c2cc(N3CCCC3)c3nonc3c2)cc1)C(F)(F)F (stereo not shown) [TRV-1365]			IC50: 920 nM
OC(c1ccccc1-c1cc(N2CCCC2)c2nonc2c1)C(F)(F)F (stereo not shown) [TRV-1366]			IC50: 3030 nM
OC(c1cc(N2CCCC2)c2nonc2c1)C(F)(F)F (stereo not shown) [TRV-1368]			inhibition at 10 µM: 61.4%
CN1CCN(c2cc(-c3cccc(C(O)C(F)(F)F)c3)cc3nonc23)CC1 (stereo not shown) [TRV-1376]			IC50: 51700 nM
CC(C)N(C)c1cc(-c2cccc(C(O)C(F)(F)F)c2)cc2nonc12 (stereo not shown) [TRV-1377]			IC50: 1860 nM
CN(Cc1ccccc1)c1cc(-c2cccc(C(O)C(F)(F)F)c2)cc2nonc12 (stereo not shown) [TRV-1378]			IC50: 2380 nM
OC(c1cccc(-c2cc(NCc3ccccc3)c3nonc3c2)c1)C(F)(F)F (stereo not shown) [TRV-1380]	57.1%		
OC(c1cccc(-c2cc(N3CCCCC3)c3nonc3c2)c1)C(F)(F)F (stereo not shown) [TRV-1381]	70.4%		
OC(c1cccc(-c2cc(N3CCSCC3)c3nonc3c2)c1)C(F)(F)F (stereo not shown) [TRV-1385]	65.6%		
CN(Cc1ccccc1)c1cc(C(O)C(F)(F)F)cc2nonc12 (stereo not shown) [TRV-1392]	36%	69%	
CN(Cc1ccc(F)cc1)c1cc(/C=C/C(O)(C(F)(F)F)C(F)(F)F)cc2nonc12 [TRV-1400]	48%	80%	
OC(c1cccc(-c2cc(N3Cc4ccccc4C3)c3nonc3c2)c1)C(F)(F)F (stereo not shown) [TRV-1401]	39%	58%	
COC1CN(c2cc(-c3cccc(C(O)C(F)(F)F)c3)cc3nonc23)C1 (stereo not shown) [TRV-1403]	51%	81%	
OC1CN(c2cc(-c3cccc(C(O)C(F)(F)F)c3)cc3nonc23)C1 (stereo not shown) [TRV-1406]	53%	83%	
CN(Cc1ccc(F)cc1)c1cc(/C=C/CO)cc2nonc12 [TRV-1409]	50%	69%	
COC1CCN(c2cc(-c3cccc(C(O)C(F)(F)F)c3)cc3nonc23)C1 (stereo not shown) [TRV-1411]	56%	81%	

Continued, in another order:

inhibition at 5 µM	inhibition at 20 µM	SMILES	further results
60%		CCN(CC)c1cc(-c2cccc(C(O)C(F)(F)F)c2)cc2nonc12 (stereo not shown) [TRV-1382]	
54.9%		COCCN(C)c1cc(-c2cccc(C(O)C(F)(F)F)c2)cc2nonc12 (stereo not shown) [TRV-1383]	
72.4%		CCN(C)c1cc(-c2cccc(C(O)C(F)(F)F)c2)cc2nonc12 (stereo not shown) [TRV-1384]	
51%	75%	CN(Cc1ccc(F)cc1)c1cc(-c2cccc(C(O)C(F)(F)F)c2)cc2nonc12 (stereo not shown) [TRV-1390]	
38%	61%	CN(Cc1ccc(F)cc1)c1cc(C(O)C(F)(F)F)cc2nonc12 (stereo not shown) [TRV-1397]	
39%	69%	C#CCN(C)c1cc(-c2cccc(C(O)C(F)(F)F)c2)cc2nonc12 (stereo not shown) [TRV-1404]	
46%	76%	CN(c1cc(-c2cccc(C(O)C(F)(F)F)c2)cc2nonc12)C1CC1 (stereo not shown) [TRV-1405]	
